Source: PubChem BioAssay AID1845204 (Molecular Pharmacology Branch, DTP, NCI, 2023)

Tested on: HSSY-II tumor spheroid viability
Assay: Anticancer human tumor HSSY-II cell line growth inhibition;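 also: spheroids exposed to compounds for seven days before reading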;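 as to viability, T/C: percent of DMSO vehicle control viability so 100% = untreated level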
Conditions: spheroids with HUVEC and MSC; for IC50: curve of first compound; for viability, T/C: stronger effect = lower value
How it was run: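 Complex spheroids of malignant cells with endothelial cells and mesenchymal stem cells; agents alone or combined, from near clinical Cmax (or 10 microM if unknown) down in half-log steps, 0.25% DMSO final.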

## CNCc1ccc(-c2cc(-c3nc(-c4ccc(S(=O)(=O)C(C)C)cc4)cnc3N)on2)cc1 + CC[C@@]1(O)C(=O)OCc2c1cc1n(c2=O)Cc2cc3c(CN(C)C)c(O)ccc3nc2-1
Second compound 0.003 µM
  IC50: 18.6 nM
Second compound 0.00949 µM
  IC50: < 9.49 nM
Second compound 0.03 µM
  IC50: < 9.49 nM
Second compound 0.0949 µM
  IC50: < 9.49 nM
Second compound 0.3 µM
  IC50: < 9.49 nM
Second compound 0.003 µM, first compound 0.00949 µM
  viability, T/C: 77.6%
Second compound 0.003 µM, first compound 0.03 µM
  viability, T/C: 30.6%
Second compound 0.003 µM, first compound 0.0949 µM
  viability, T/C: 3.68%
Second compound 0.003 µM, first compound 0.3 µM
  viability, T/C: 4.09%
Second compound 0.003 µM, first compound 0.949 µM
  viability, T/C: 2.62%
Second compound 0.003 µM, first compound 3 µM
  viability, T/C: 0.44%
Second compound 0.00949 µM, first compound 0.00949 µM
  viability, T/C: 32.7%
Second compound 0.00949 µM, first compound 0.03 µM
  viability, T/C: 9.13%
Second compound 0.00949 µM, first compound 0.0949 µM
  viability, T/C: 3.26%
Second compound 0.00949 µM, first compound 0.3 µM
  viability, T/C: 4.02%
Second compound 0.00949 µM, first compound 0.949 µM
  viability, T/C: 2.08%
Second compound 0.00949 µM, first compound 3 µM
  viability, T/C: 0.35%
Second compound 0.03 µM, first compound 0.00949 µM
  viability, T/C: 6.55%
Second compound 0.03 µM, first compound 0.03 µM
  viability, T/C: 4.21%
Second compound 0.03 µM, first compound 0.0949 µM
  viability, T/C: 3.3%
Second compound 0.03 µM, first compound 0.3 µM
  viability, T/C: 3.14%
Second compound 0.03 µM, first compound 0.949 µM
  viability, T/C: 2.37%
Second compound 0.03 µM, first compound 3 µM
  viability, T/C: 0.13%
Second compound 0.0949 µM, first compound 0.00949 µM
  viability, T/C: 4.97%
Second compound 0.0949 µM, first compound 0.03 µM
  viability, T/C: 3.98%
Second compound 0.0949 µM, first compound 0.0949 µM
  viability, T/C: 4.07%
Second compound 0.0949 µM, first compound 0.3 µM
  viability, T/C: 3.55%
Second compound 0.0949 µM, first compound 0.949 µM
  viability, T/C: 2.72%
Second compound 0.0949 µM, first compound 3 µM
  viability, T/C: 0.42%
Second compound 0.3 µM, first compound 0.00949 µM
  viability, T/C: 4.42%
Second compound 0.3 µM, first compound 0.03 µM
  viability, T/C: 3.95%
Second compound 0.3 µM, first compound 0.0949 µM
  viability, T/C: 3.59%
Second compound 0.3 µM, first compound 0.3 µM
  viability, T/C: 3.99%
Second compound 0.3 µM, first compound 0.949 µM
  viability, T/C: 3.16%
Second compound 0.3 µM, first compound 3 µM
  viability, T/C: 0.24%

## Cc1cc(C)c(CNC(=O)c2cc(-c3ccc(CN4CCOCC4)cc3)cc3c2cnn3C2CCCC2)c(=O)[nH]1 + COc1cc2c(cc1O)CCNC21CSC2c3c(OC(C)=O)c(C)c4c(c3C(COC1=O)N1C(O)C3Cc5cc(C)c(OC)c(O)c5C(C21)N3C)OCO4
Second compound 30 pM
  IC50: > 10000 nM
Second compound 94.9 pM
  IC50: 8460 nM
Second compound 0.0003 µM
  IC50: < 31.6 nM
Second compound 0.000949 µM
  IC50: < 31.6 nM
Second compound 0.003 µM
  IC50: < 31.6 nM
Second compound 30 pM, first compound 0.0316 µM
  viability, T/C: 106%
Second compound 30 pM, first compound 0.1 µM
  viability, T/C: 106%
Second compound 30 pM, first compound 0.316 µM
  viability, T/C: 108%
Second compound 30 pM, first compound 1 µM
  viability, T/C: 108%
Second compound 30 pM, first compound 3.16 µM
  viability, T/C: 107%
Second compound 30 pM, first compound 10 µM
  viability, T/C: 76.6%
Second compound 94.9 pM, first compound 0.0316 µM
  viability, T/C: 92.4%
Second compound 94.9 pM, first compound 0.1 µM
  viability, T/C: 100%
Second compound 94.9 pM, first compound 0.316 µM
  viability, T/C: 91.3%
Second compound 94.9 pM, first compound 1 µM
  viability, T/C: 86%
Second compound 94.9 pM, first compound 3.16 µM
  viability, T/C: 79.4%
Second compound 94.9 pM, first compound 10 µM
  viability, T/C: 45.1%
Second compound 0.0003 µM, first compound 0.0316 µM
  viability, T/C: 15.2%
Second compound 0.0003 µM, first compound 0.1 µM
  viability, T/C: 15.1%
Second compound 0.0003 µM, first compound 0.316 µM
  viability, T/C: 13.4%
Second compound 0.0003 µM, first compound 1 µM
  viability, T/C: 11.8%
Second compound 0.0003 µM, first compound 3.16 µM
  viability, T/C: 12.4%
Second compound 0.0003 µM, first compound 10 µM
  viability, T/C: 11.8%
Second compound 0.000949 µM, first compound 0.0316 µM
  viability, T/C: 2.63%
Second compound 0.000949 µM, first compound 0.1 µM
  viability, T/C: 2.57%
Second compound 0.000949 µM, first compound 0.316 µM
  viability, T/C: 2.16%
Second compound 0.000949 µM, first compound 1 µM
  viability, T/C: 2.23%
Second compound 0.000949 µM, first compound 3.16 µM
  viability, T/C: 2.69%
Second compound 0.000949 µM, first compound 10 µM
  viability, T/C: 1.43%
Second compound 0.003 µM, first compound 0.0316 µM
  viability, T/C: 0.15%
Second compound 0.003 µM, first compound 0.1 µM
  viability, T/C: 0.17%
Second compound 0.003 µM, first compound 0.316 µM
  viability, T/C: 0.17%
Second compound 0.003 µM, first compound 1 µM
  viability, T/C: 0.15%
Second compound 0.003 µM, first compound 3.16 µM
  viability, T/C: 0.17%
Second compound 0.003 µM, first compound 10 µM
  viability, T/C: 0.22%
